Results: PubChem BioAssay AID1996
In brackets after ≈: the same amount, converted by molar mass.

Details: buffer; pH 7.4; 200.0 µM

| SMILES | solubility kinetic |
| --- | --- |
| N=c1oc2ccccc2cc1C(=O)NC1CCCCCC1 | 0.0159 mg/mL (≈ 55.9 µM) |
| Cc1ccccc1-c1noc(CNC(=O)COc2ccccc2)n1 | 0.0077 mg/mL (≈ 23.8 µM) |
| COC(=O)[C@H](CC(C)C)NC(=O)Nc1ccccc1F | > 0.0423 mg/mL |
| O=[N+]([O-])c1cccc(P(=O)(O)c2cccc([N+](=O)[O-])c2)c1 | > 0.0462 mg/mL |
| Cc1cc(C)cc(OCc2ccc(C(=O)NC3CCOC3=O)o2)c1 (stereo not given) | > 0.0494 mg/mL |
| CC(=O)Nc1ccc(Oc2nc(-c3ccccn3)nc3ccccc23)cc1 | 0.0068 mg/mL (≈ 19.1 µM) |
| NC12CC3CC(C1)CC(CC(=O)O)(C3)C2 | 0.0236 mg/mL (≈ 113 µM) |
| O=C(O)C1C2CCC(C2)C1C(=O)NCCc1cccc(Cl)c1 (stereo not given) | > 0.0483 mg/mL |
| COc1ccc(C(=O)NCCCNC(=O)c2ccc(C)nc2)cc1 | > 0.0491 mg/mL |
| CCCN(CC(=O)Nc1ccccc1OC)C(=O)Cc1ccccc1F | 0.0389 mg/mL (≈ 109 µM) |
| O=C1NC(c2ccc(Cl)cc2)=COc2ccccc21 | 0.0011 mg/mL (≈ 4.05 µM) |
| CCCCC(=O)NC1(C(F)(F)F)NC(=O)N(Cc2ccccc2)C1=O (stereo not given) | 0.0461 mg/mL (≈ 129 µM) |
| COc1ccc2nc(NC(=O)c3ccco3)sc2c1 | 0.0074 mg/mL (≈ 27 µM) |
| O=C(Nc1nonc1-c1ccc(F)cc1)c1ccco1 | > 0.041 mg/mL |
| CCNc1nc(NCC)nc(NS(=O)(=O)c2ccc(N)cc2)n1 | 0.0369 mg/mL (≈ 109 µM) |
| Cc1cc(N/C=C/C(=O)c2ccccc2)ccc1Br | < 0.0007 mg/mL |
| O=C(CSCc1ccc(F)cc1)NCc1ccc(F)cc1 | 0.044 mg/mL (≈ 143 µM) |
| CC(C)NC(=O)CNc1ccc(C(F)(F)F)cc1[N+](=O)[O-] | 0.0134 mg/mL (≈ 43.9 µM) |
| CN(/C=C/c1c([N+](=O)[O-])c(=O)n(C)c(=O)n1C)c1ccccc1 | 0.0049 mg/mL (≈ 15.5 µM) |
| COCC(C)Nc1nc(C)c(C(C)=O)s1 (stereo not given) | > 0.0342 mg/mL |
| O=C(c1cc2cc(Cl)ccc2[nH]1)N1CCc2ccccc2C1 | 0.0009 mg/mL (≈ 2.9 µM) |
| NC(=S)COc1ccccc1 | 0.0183 mg/mL (≈ 109 µM) |
| Cl.N=c1ccn(Cc2cccc(F)c2)cc1 | 0.0308 mg/mL |
| c1cnc(N2CCN(Cc3ccc4c(c3)OCO4)CC2)cn1 | 0.0445 mg/mL (≈ 149 µM) |

| SMILES | solubility kinetic |
| --- | --- |
| Cc1cccc(OCCOC(=O)c2c(-c3ccccc3)noc2C)c1 | 0.0011 mg/mL (≈ 3.26 µM) |
| CC(C)(C)NC(=O)NCc1ccco1 | > 0.0294 mg/mL |
| CN(C)C(=O)c1coc2nc3ccccc3nc12 | 0.004 mg/mL (≈ 16.6 µM) |
| CC(C)C(=O)Nc1cc(S(=O)(=O)N2CCOCC2)ccc1N1CCCCC1 | 0.049 mg/mL (≈ 124 µM) |
| O=C(Nc1ccc(Nc2ccccc2)cc1)c1ccc(Cl)cc1 | 0.0004 mg/mL (≈ 1.24 µM) |
| COc1ccc(S(=O)(=O)c2c[nH]c(=S)[nH]c2=O)cc1Cl | > 0.0499 mg/mL |
| O=C(/C=C/c1cccc([N+](=O)[O-])c1)OCC(=O)c1ccccc1 | < 0.0007 mg/mL |
| COC(=O)C(C)Oc1ccc(-c2nccc(-c3ccc(F)cc3)n2)cc1 (stereo not given) | 0.0026 mg/mL (≈ 7.38 µM) |
| Cc1ccc(C(=O)NCC(=O)NCc2ccccc2F)s1 | > 0.046 mg/mL |
| Nc1ccc(SCC(=O)Nc2cccc([N+](=O)[O-])c2)cc1 | > 0.0455 mg/mL |
| Cc1ccnc(SCC(=O)Nc2sccc2C#N)n1 | 0.0132 mg/mL (≈ 45.5 µM) |
| CN(Cc1cccnc1)C(=O)CNC(=O)COc1ccccc1 | > 0.047 mg/mL |
| CC(Sc1ccccc1)C(=O)NCCc1ccccc1 (stereo not given) | > 0.0428 mg/mL |
| CN(Cc1ccccc1)C(=O)COc1ccccc1Cl | 0.04 mg/mL (≈ 138 µM) |
| Cc1ccc2nc(Cl)c(C#N)cc2c1 | 0.0022 mg/mL (≈ 10.9 µM) |
| CCCC(=O)Nc1sc2c(c1C(=O)OCC)CC(C)(C)OC2 | 0.0046 mg/mL (≈ 14.1 µM) |
| COc1ccccc1CNC(=O)CCNS(=O)(=O)/C=C/c1ccc(C)cc1 | 0.0578 mg/mL (≈ 149 µM) |
| NC(=O)c1ccc(Oc2ccc3c(c2)CCC3)c([N+](=O)[O-])c1 | 0.0054 mg/mL (≈ 18.1 µM) |
| Cc1cc(Br)ccc1S(=O)(=O)n1ccnc1C | > 0.0473 mg/mL |
| Cc1ccc(C(=O)Nc2ncccc2O)o1 | > 0.0327 mg/mL |
| O=C(NCCO)C(=O)Nc1cc2c3c(c1)CCN3C(=O)CC2 | > 0.0455 mg/mL |
| CC(=O)Nc1ccc2c(c1)nc(CCNC(=O)c1ccco1)n2C | 0.0482 mg/mL (≈ 148 µM) |
| COc1ccc(/C=N/NC(=O)c2cccnc2)cc1CN1CCOCC1 | > 0.0532 mg/mL |
| COc1ccc(Nc2nc(Cl)c(C=O)s2)cc1 | 0.0111 mg/mL (≈ 41.3 µM) |

| SMILES | solubility kinetic |
| --- | --- |
| COc1cccc(NC(=O)c2nc(S(C)(=O)=O)ncc2Cl)c1 | 0.0336 mg/mL (≈ 98.3 µM) |
| N#Cc1cccnc1N1CCN(C(=O)c2cccs2)CC1 | > 0.0448 mg/mL |
| CCc1ccc(OCC(=O)NC2CC(C)(C)NC(C)(C)C2)cc1 | 0.044 mg/mL (≈ 138 µM) |
| COC(=O)c1cccc(NS(C)(=O)=O)c1 | > 0.0344 mg/mL |
| O=C(Cc1c(F)cccc1Cl)OCC(=O)N1CCc2ccccc21 | 0.0095 mg/mL (≈ 27.3 µM) |
| Cc1cccc(OC(C)C(=O)NC2CCS(=O)(=O)C2)c1C (stereo not given) | 0.0464 mg/mL (≈ 149 µM) |
| O=C(COC(=O)/C=C/c1cccc(Br)c1)NCc1cccs1 | 0.005 mg/mL (≈ 13.1 µM) |
| COc1ccc(C(=O)NCCSCc2cccc(Cl)c2)cc1OC | 0.0063 mg/mL (≈ 17.2 µM) |
| O=S(=O)(Nc1ccc(-c2cn3ccccc3n2)cc1)c1ccccc1 | 0.0015 mg/mL (≈ 4.29 µM) |
| Cc1cccc(-n2c(C)nc3ccccc3c2=O)c1C | > 0.0396 mg/mL |
| CCN(Cc1ccncc1)C(=S)Nc1ccc(Cl)cc1 | > 0.0459 mg/mL |
| COC(=O)Cn1c2ccc(C)cc2c2nc3ccccc3nc21 | < 0.0002 mg/mL |
| CCOC(=O)CCCNC(=O)CCNC(=O)c1ccc(OCCC(C)C)cc1 | > 0.0589 mg/mL |
| COc1ccc(OCC(=O)Nc2ccc3c(c2)CCC3)cc1 | 0.0193 mg/mL (≈ 64.9 µM) |
| S=c1sc2c(Cl)ncnc2n1-c1ccccc1 | 0.0083 mg/mL (≈ 29.7 µM) |
| O=C1C(Cc2c[nH]c3ccccc23)NC(=S)N1C1CCCCC1 (stereo not given) | 0.049 mg/mL (≈ 150 µM) |
| COC(=O)c1ccc(NC(=O)c2cccc(NC(=O)c3ccco3)c2)cc1 | < 0.0004 mg/mL |
| Cc1ccc(-c2noc(COC(=O)c3ccco3)n2)cc1 | 0.0088 mg/mL (≈ 31 µM) |
| Cc1cc(NC(=O)COc2c(C)cccc2C)no1 | 0.0069 mg/mL (≈ 26.5 µM) |
| Cc1cc(=O)[nH]c(SCC(=O)NC(C)C2CC3CCC2C3)c1C#N (stereo not given) | > 0.0518 mg/mL |
| Cc1nn(CC(=O)NCCC2=CCCCC2)c(C)c1S(=O)(=O)N(C)C | > 0.0553 mg/mL |
| COc1ccc(Cl)cc1/C=C(\C#N)C(N)=O | > 0.0355 mg/mL |
| O=C(Nc1ccc(Cl)cn1)c1cccc2ccccc12 | 0.0013 mg/mL (≈ 4.6 µM) |
| CC1CCN(S(=O)(=O)c2c[nH]c(=O)[nH]c2=O)CC1 | > 0.041 mg/mL |

| SMILES | solubility kinetic |
| --- | --- |
| Fc1cc(Cl)ccc1NC(=S)NCCN1CCOCC1 | > 0.0477 mg/mL |
| Cc1cn(CC(=O)c2ccccc2)c2ccccc12 | 0.0012 mg/mL (≈ 4.81 µM) |
| CC(C)CCNC(=O)C1c2ccccc2Oc2ccccc21 | < 0.0006 mg/mL |
| CC(C)N1CCN(Cc2cnc(-c3ccccc3)s2)CC1CCO (stereo not given) | > 0.0518 mg/mL |
| Cc1nc(-c2ccccn2)nc(SCC(=O)c2ccc(F)cc2)c1Cl | 0.0024 mg/mL (≈ 6.42 µM) |
| COc1cc(/C=C/C(=O)OCC(=O)Nc2cc(S(=O)(=O)N3CCCC3)ccc2Cl)cc(OC)c1OC | 0.0043 mg/mL (≈ 7.98 µM) |
| COc1ccccc1CNC(=O)Cn1cc([N+](=O)[O-])ccc1=O | > 0.0476 mg/mL |
| COc1ccc(CNc2cccc(C)n2)c(O)c1 | 0.028 mg/mL (≈ 115 µM) |
| CC(O)c1nc2ccccc2n1CCCOc1ccccc1 (stereo not given) | > 0.0445 mg/mL |
| COc1cccc(C(=O)Nc2cccnc2)c1OC | > 0.0387 mg/mL |
| Cc1cc2oc(=O)sc2cc1NS(=O)(=O)c1ccccc1 | 0.0428 mg/mL (≈ 133 µM) |
| Cc1ccc(N2C(=S)NC3c4ccccc4OC2(C)C3C(=O)N(C)C)cc1 (stereo not given) | 0.0509 mg/mL (≈ 133 µM) |
| COc1cc2c(cc1OC)CN(CC(=O)NC(=O)NC1CCCCC1)CC2 | > 0.0563 mg/mL |
| COc1cccc(-c2cc(-c3cccnc3)nc(N)c2C#N)c1 | 0.0023 mg/mL (≈ 7.61 µM) |
| NC(=S)Cc1ccccc1Cl | 0.0252 mg/mL (≈ 136 µM) |
| CCOc1ccc(C(=O)OC(C)CN2CCN(C)CC2)cc1.Cl (stereo not given) | > 0.0514 mg/mL |
| CCOC(=O)/C(O)=C(\C#N)c1nc2ccccc2[nH]1 | > 0.0386 mg/mL |
| CCC(CO)Nc1ncnc2onc(-c3ccc(F)cc3)c12 (stereo not given) | > 0.0453 mg/mL |
| COC(=O)c1cc(S(=O)(=O)N(C)C2CCCCC2)c[nH]1 | > 0.0451 mg/mL |
| CCNC(=S)Nc1ccc(Cc2nc3ccccc3[nH]2)cc1 | 0.036 mg/mL (≈ 116 µM) |
| O=C(Cn1cc(C(F)(F)F)ccc1=O)Nc1ccccc1 | 0.01 mg/mL (≈ 33.8 µM) |
| COc1ccc(CN(C)C(=O)c2ccncc2)c(OC)c1 | > 0.0429 mg/mL |
| O=S(=O)(NCc1csc(-c2cccs2)n1)c1ccccc1 | 0.0406 mg/mL (≈ 121 µM) |
| O=C(O)CSc1nc2ccccc2nc1Cc1ccccc1F | 0.0477 mg/mL (≈ 145 µM) |

| SMILES | solubility kinetic |
| --- | --- |
| C=CCN(Cc1nc(-c2ccccc2)no1)C(=O)c1ccc2c(c1)OCO2 | 0.0211 mg/mL (≈ 58.1 µM) |
| Cn1c(=O)c(C(=O)NCc2ccc(Cl)cc2)c(O)c2ccccc21 | < 0.0004 mg/mL |
| O=C(COc1ccc2c(c1)OCO2)Nc1cccc(F)c1 | 0.0215 mg/mL (≈ 74.3 µM) |
| CC(=O)c1ccc(NC(=O)c2onc(C)c2Cl)cc1 | 0.0068 mg/mL (≈ 24.4 µM) |
| N#C/C(=C\c1ccccc1O)C(=O)Nc1ccccn1 | 0.0329 mg/mL (≈ 124 µM) |
| CC(=O)N(Cc1ccccc1)c1c(N)nc(N)[nH]c1=O | > 0.041 mg/mL |
| N#Cc1c(Cl)nc2c(c1C#N)CCCC2 | > 0.0326 mg/mL |
| O=[N+]([O-])c1cccc(S(=O)(=O)/N=C(/Nc2ccccc2)c2ccccc2)c1 | 0.0018 mg/mL (≈ 4.72 µM) |
| CCN(CC(=O)NCc1ccc(F)cc1)C(=O)c1ccc(C)o1 | > 0.0478 mg/mL |
| CCc1cccc(C)c1NC(=O)c1ccc2c(c1)CCN2S(C)(=O)=O | 0.0193 mg/mL (≈ 53.8 µM) |
| CCOC(=O)N1CCN(CC(=O)Nc2ccc(F)cc2F)CC1 | > 0.0491 mg/mL |
| O=S(=O)(c1ccc(-c2ccon2)s1)N1CCN(c2ccncc2)CC1 | 0.0378 mg/mL (≈ 100 µM) |
| CC(C)CNS(=O)(=O)c1ccc(CCC(=O)NC2CCCCC2)cc1 | 0.0105 mg/mL (≈ 28.6 µM) |
| CCN1CCc2c(OCC(=O)N3CCC(C)CC3)cccc2C1=O | 0.0462 mg/mL (≈ 140 µM) |
| Cc1oc(S(=O)(=O)N2CCCCC2)cc1NC(=O)Nc1ccc(F)cc1 | 0.0055 mg/mL (≈ 14.4 µM) |
| COc1ccc(Nc2ncc(C#N)c(N)n2)c(OC)c1 | 0.0066 mg/mL (≈ 24.3 µM) |
| O=C(NC1(C(F)(F)F)NC(=O)N(C2CCCCC2)C1=O)C1CC1 (stereo not given) | > 0.05 mg/mL |
| Cc1cc(O)ccc1NS(=O)(=O)c1ccc2c3c(cccc13)C(=O)N2 | 0.0488 mg/mL (≈ 138 µM) |
| Cc1ccc(NC(=O)N2CCC(C(=O)c3ccc(F)cc3)CC2)cc1 | 0.0006 mg/mL (≈ 1.76 µM) |
| Cc1cc[n+](Cc2ccc([N+](=O)[O-])cc2)cc1.[Br-] | > 0.0464 mg/mL |
| Nc1cc(N)nc(SCC(=O)NCc2ccc3c(c2)OCO3)n1 | > 0.05 mg/mL |
| CCc1cc(=O)[nH]c(SC/C=C/c2ccccc2)n1 | 0.0107 mg/mL (≈ 39.3 µM) |
| Cc1cccc(NCc2ccc([N+](=O)[O-])s2)c1 | 0.0151 mg/mL (≈ 60.8 µM) |
| COc1ccc(NC(=O)NC2(C)CCS(=O)(=O)C2)cc1 (stereo not given) | > 0.0448 mg/mL |
